Laboratory results as given in patent US8575156B2, “Cyclic inhibitors of 11β-hydroxysteroid dehydrogenase 1” (Vitae Pharmaceuticals, Inc., priority 2007, dated 2013).
Where two headings read alike, the source gives them in different places.

Molecular target: 11β-HSD1 (Homo sapiens, UniProt P28845)
Test: biochemical
Conditions: for IC50: IC50 Range, Biological Test Example 1, microsomes from CHO cells overexpressing human 11β-HSD1; for inhibition at 0.1 µM: read-out: Average % inhibition at 100 nM, Biological Test Example 1, 100 nM compound
[1] = read-out: Average % inhibition at 111.1 nM, Biological Test Example 1, 111.1 nM compound
[2] = read-out: Average % inhibition at 111.1 nM

Sequence of 11β-HSD1 (P28845 whole entry): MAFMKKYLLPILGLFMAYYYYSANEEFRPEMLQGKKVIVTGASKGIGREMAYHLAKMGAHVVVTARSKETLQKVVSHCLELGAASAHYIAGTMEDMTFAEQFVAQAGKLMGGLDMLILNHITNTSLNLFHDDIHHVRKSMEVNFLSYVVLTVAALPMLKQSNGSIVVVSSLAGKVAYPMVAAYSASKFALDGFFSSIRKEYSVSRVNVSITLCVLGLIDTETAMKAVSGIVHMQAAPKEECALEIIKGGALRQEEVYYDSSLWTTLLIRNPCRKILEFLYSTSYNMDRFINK

IC50 | inhibition at 0.1111 µM [1] | inhibition at 0.1 µM | SMILES | inhibition at 0.1111 µM [2]
100 to 1000 nM | 24% | – | CC1(c2ccccc2)CCN(c2cccc(-c3ccc(CNS(C)(=O)=O)cc3)c2)C(=O)O1 (stereo not drawn) [EXAMPLE 19, N-((3′-(6-methyl-2-oxo-6-phenyl-1,3-oxazinan-3-yl)biphenyl-4-yl)methyl)methanesulfonamide] | –
< 100 nM | 88.9% | – | CC1(c2ccccc2)CCN(c2cccc(-c3c(Cl)cccc3Cl)c2)C(=O)O1 (stereo not drawn) [EXAMPLE 22, 3-(2′,6′-dichlorobiphenyl-3-yl)-6-methyl-6-phenyl-1,3-oxazinan-2-one] | –
< 100 nM | 87% | 88.2% | CC1(c2ccccc2)CCN(c2cccc(-c3cc(F)ccc3F)c2)C(=O)O1 (stereo not drawn) [EXAMPLE 26, 3-(2′,5′-difluorobiphenyl-3-yl)-6-methyl-6-phenyl-1,3-oxazinan-2-one] | –
100 to 1000 nM | 27.5% | – | CNC(=O)c1cccc(-c2cccc(N3CCC(C)(c4ccccc4)OC3=O)c2)c1 (stereo not drawn) [EXAMPLE 31, N-methyl-3′-(6-methyl-2-oxo-6-phenyl-1,3-oxazinan-3-yl)biphenyl-3-carboxamide] | –
– | 37.1% | – | CC1(c2ccccc2)CCN(c2cccc(-c3ccncc3)c2)C(=O)O1 (stereo not drawn) [EXAMPLE 33, 6-methyl-6-phenyl-3-(3-(pyridin-4-yl)phenyl)-1,3-oxazinan-2-one] | –
100 to 1000 nM | 26.7% | – | CC1(c2ccccc2)CCN(c2cccc(-c3ccccc3CO)c2)C(=O)O1 (stereo not drawn) [EXAMPLE 35, 3-(2′-(hydroxymethyl)biphenyl-3-yl)-6-methyl-6-phenyl-1,3-oxazinan-2-one] | –
100 to 1000 nM | 17.8% | – | COC(=O)c1cccc(-c2cccc(N3CCC(C)(c4ccccc4)OC3=O)c2)c1 (stereo not drawn) [EXAMPLE 38, methyl 3′-(6-methyl-2-oxo-6-phenyl-1,3-oxazinan-3-yl)biphenyl-3-carboxylate] | –
100 to 1000 nM | 19.9% | – | CC(=O)NCc1cccc(-c2cccc(N3CCC(C)(c4ccccc4)OC3=O)c2)c1 (stereo not drawn) [EXAMPLE 41, N-((3′-(6-methyl-2-oxo-6-phenyl-1,3-oxazinan-3-yl)biphenyl-3-yl)methyl)acetamide] | –
100 to 1000 nM | 36.7% | – | CN(C)C(=O)c1ccc(-c2cccc(N3CCC(C)(c4ccccc4)OC3=O)c2)cc1 (stereo not drawn) [EXAMPLE 42, N,N-dimethyl-3′-(6-methyl-2-oxo-6-phenyl-1,3-oxazinan-3-yl)biphenyl-4-carboxamide] | –
100 to 1000 nM | 35% | – | CC1(c2ccccc2)CCN(c2cccc(-c3ccc(C(N)=O)cc3)c2)C(=O)O1 (stereo not drawn) [EXAMPLE 44, 3′-(6-methyl-2-oxo-6-phenyl-1,3-oxazinan-3-yl)biphenyl-4-carboxamide] | –
100 to 1000 nM | 31.2% | – | CC1(c2ccccc2)CCN(c2cccc(-c3ccccc3NS(C)(=O)=O)c2)C(=O)O1 (stereo not drawn) [EXAMPLE 45, N-(3′-(6-methyl-2-oxo-6-phenyl-1,3-oxazinan-3-yl)biphenyl-2-yl)methanesulfonamide] | –
100 to 1000 nM | 46.4% | – | COC(=O)c1ccc(-c2cccc(N3CCC(C)(c4ccccc4)OC3=O)c2)cc1 (stereo not drawn) [EXAMPLE 46, methyl 3′-(6-methyl-2-oxo-6-phenyl-1,3-oxazinan-3-yl)biphenyl-4-carboxylate] | –
100 to 1000 nM | 36.3% | – | CNS(=O)(=O)c1ccc(-c2cccc(N3CCC(C)(c4ccccc4)OC3=O)c2)cc1 (stereo not drawn) [EXAMPLE 47, N-methyl-3′-(6-methyl-2-oxo-6-phenyl-1,3-oxazinan-3-yl)biphenyl-4-sulfonamide] | –
100 to 1000 nM | 34.8% | – | CC1(c2ccccc2)CCN(c2nccc(-c3cccc(Cl)c3)n2)C(=O)O1 (stereo not drawn) [EXAMPLE 58, 3-(4-(3-chlorophenyl)pyrimidin-2-yl)-6-methyl-6-phenyl-1,3-oxazinan-2-one] | –

Further lines, the compound ahead of its results:

SMILES | IC50 | inhibition at 0.1111 µM [1] | inhibition at 0.1 µM | inhibition at 0.1111 µM [2]
CC1(c2ccccc2)CCN(c2cccc(-c3cccc(C#N)c3)c2)C(=O)O1 (stereo not drawn) [EXAMPLE 17, 3′-(6-methyl-2-oxo-6-phenyl-1,3-oxazinan-3-yl)biphenyl-3-carbonitrile] | < 100 nM | 58.8% | – | –
COCCNC(=O)c1cccc(-c2cccc(N3CCC(C)(c4ccccc4)OC3=O)c2)c1 (stereo not drawn) [EXAMPLE 18, N-(2-methoxyethyl)-3′-(6-methyl-2-oxo-6-phenyl-1,3-oxazinan-3-yl)biphenyl-3-carboxamide] | 100 to 1000 nM | 7.2% | – | –
COc1ccccc1-c1cccc(N2CCC(C)(c3ccccc3)OC2=O)c1 (stereo not drawn) [EXAMPLE 21, 3-(2′-methoxybiphenyl-3-yl)-6-methyl-6-phenyl-1,3-oxazinan-2-one] | < 100 nM | 76.7% | – | –
CC1(c2ccccc2)CCN(c2cccc(-c3cccc(Cl)c3)c2)C(=O)O1 (stereo not drawn) [EXAMPLE 24, 3-(3′-chlorobiphenyl-3-yl)-6-methyl-6-phenyl-1,3-oxazinan-2-one] | < 100 nM | 86% | 93.4% | –
CC1(c2ccccc2)CCN(c2cccc(-c3cc(F)cc(F)c3)c2)C(=O)O1 (stereo not drawn) [EXAMPLE 27, 3-(3′,5′-difluorobiphenyl-3-yl)-6-methyl-6-phenyl-1,3-oxazinan-2-one] | < 100 nM | 67% | – | –
CC1(c2ccccc2)CCN(c2cccc(-c3cccc(NS(C)(=O)=O)c3)c2)C(=O)O1 (stereo not drawn) [EXAMPLE 29, N-(3′-(6-methyl-2-oxo-6-phenyl-1,3-oxazinan-3-yl)biphenyl-3-yl)methanesulfonamide] | 100 to 1000 nM | 29.8% | – | –
CNS(=O)(=O)c1cccc(-c2cccc(N3CCC(C)(c4ccccc4)OC3=O)c2)c1 (stereo not drawn) [EXAMPLE 30, N-methyl-3′-(6-methyl-2-oxo-6-phenyl-1,3-oxazinan-3-yl)biphenyl-3-sulfonamide] | 100 to 1000 nM | 23.1% | – | –
CC1(c2ccccc2)CCN(c2cccc(-c3cccc(N)c3)c2)C(=O)O1 (stereo not drawn) [EXAMPLE 32, 3-(3′-aminobiphenyl-3-yl)-6-methyl-6-phenyl-1,3-oxazinan-2-one] | 100 to 1000 nM | 46% | – | –
COc1cccc(-c2cccc(N3CCC(C)(c4ccccc4)OC3=O)c2)c1 (stereo not drawn) [EXAMPLE 34, 3-(3′-methoxybiphenyl-3-yl)-6-methyl-6-phenyl-1,3-oxazinan-2-one] | < 100 nM | 72% | – | –
CC1(c2ccccc2)CCN(c2cccc(-c3cccs3)c2)C(=O)O1 (stereo not drawn) [EXAMPLE 36, 6-methyl-6-phenyl-3-(3-(thiophen-2-yl)phenyl)-1,3-oxazinan-2-one] | < 100 nM | 63.3% | – | –
CC1(c2ccccc2)CCN(c2cccc(-c3cccc(CO)c3)c2)C(=O)O1 (stereo not drawn) [EXAMPLE 39, 3-(3′-(hydroxymethyl)biphenyl-3-yl)-6-methyl-6-phenyl-1,3-oxazinan-2-one] | 100 to 1000 nM | 24.8% | – | –
CC1(c2ccccc2)CCN(c2cccc(-c3cccc(S(C)(=O)=O)c3)c2)C(=O)O1 (stereo not drawn) [EXAMPLE 40, 6-methyl-3-(3′-(methylsulfonyl)biphenyl-3-yl)-6-phenyl-1,3-oxazinan-2-one] | 100 to 1000 nM | 28.8% | – | –
CC1(c2ccccc2)CCN(c2cccc(-c3ccc(O)cc3)c2)C(=O)O1 (stereo not drawn) [EXAMPLE 43, 3-(4′-hydroxybiphenyl-3-yl)-6-methyl-6-phenyl-1,3-oxazinan-2-one] | < 100 nM | 77.7% | – | –
CC1(c2ccccc2)CCN(c2cccc(-c3ccc(CO)cc3)c2)C(=O)O1 (stereo not drawn) [EXAMPLE 48, 3-(4′-(hydroxymethyl)biphenyl-3-yl)-6-methyl-6-phenyl-1,3-oxazinan-2-one] | 100 to 1000 nM | 37% | – | –
CC1(c2ccccc2)CCN(c2cccc(-c3cccc(-c4nnn[nH]4)c3)c2)C(=O)O1 (stereo not drawn) [EXAMPLE 49, 3-(3′-(1H-tetrazol-5-yl)biphenyl-3-yl)-6-methyl-6-phenyl-1,3-oxazinan-2-one] | 100 to 1000 nM | 15.4% | – | –
O=C1OC(CCO)(c2ccccc2F)CCN1c1cccc(-c2ccc(F)cc2Cl)n1 (stereo not drawn) [EXAMPLE 50, 3-(6-(2-chloro-4-fluorophenyl)pyridin-2-yl)-6-(2-fluorophenyl)-6-(2-hydroxyethyl)-1,3-oxazinan-2-one] | < 100 nM | 96.3% | – | –
C[C@@H](c1ccc(-c2ccc(F)cc2F)cc1)N1CC[C@](CC(O)CO)(c2ccc(F)cc2)OC1=O (stereo partly drawn) [EXAMPLE 52, (6S)-3-((S)-1-(2′,4′-difluorobiphenyl-4-yl)ethyl)-6-(2,3-dihydroxypropyl)-6-(4-fluorophenyl)-1,3-oxazinan-2-one] | < 100 nM | – | 98.6% | –
CC1(c2cccc(Cl)c2)CCN(c2cccc(N3CCCCC3)n2)C(=O)O1 (stereo not drawn) [EXAMPLE 53, 6-(3-chlorophenyl)-6-methyl-3-(6-(piperidin-1-yl)pyridin-2-yl)-1,3-oxazinan-2-one] | < 100 nM | – | – | 57.1%
CC1(c2ccccc2)CCN(c2ccnc(-c3ccc(F)cc3)n2)C(=O)O1 (stereo not drawn) [EXAMPLE 55, 3-(2-(4-fluorophenyl)pyrimidin-4-yl)-6-methyl-6-phenyl-1,3-oxazinan-2-one] | 100 to 1000 nM | – | – | 3.7%
CC1(c2ccccc2)CCN(c2ccnc(-c3cccc(F)c3)n2)C(=O)O1 (stereo not drawn) [EXAMPLE 56, 3-(2-(3-fluorophenyl)pyrimidin-4-yl)-6-methyl-6-phenyl-1,3-oxazinan-2-one] | 100 to 1000 nM | – | – | 5.6%
CC1(c2ccccc2)CCN(c2nccc(Cl)n2)C(=O)O1 (stereo not drawn) [EXAMPLE 57, 3-(4-chloropyrimidin-2-yl)-6-methyl-6-phenyl-1,3-oxazinan-2-one] | 100 to 1000 nM | – | – | 10.4%
CC1(c2ccccc2)CCN(c2nccc(-c3ccc(F)cc3F)n2)C(=O)O1 (stereo not drawn) [EXAMPLE 59, 3-(4-(2,4-difluorophenyl)pyrimidin-2-yl)-6-methyl-6-phenyl-1,3-oxazinan-2-one] | 100 to 1000 nM | 18% | – | –
CC1(c2ccccc2)CCN(c2nccc(-c3c(Cl)cccc3Cl)n2)C(=O)O1 (stereo not drawn) [EXAMPLE 60, 3-(4-(2,6-dichlorophenyl)pyrimidin-2-yl)-6-methyl-6-phenyl-1,3-oxazinan-2-one] | 100 to 1000 nM | 51.3% | – | –
